The text below walks through data of patent US20210268004A1, “COMPOSITION CONTAINING BECLOMETHASONE FOR THE PREVENTION AND THE TREATMENT OF BACTERIAL PROSTATITIS AND VAGINITIS” (SOFAR S.P.A., priority 2018, published 2021).

Structures are written as SMILES. Read-outs that look alike come from different tables or passages of the source.

Data set [1] deals with colorectal mucosa (epithelial tissue of the human colon reconstructed in 3D). The following applies: for recovery %: human. How it is done: The trial was conducted according to the OCSE TG 428-EU approved method used for percutaneous penetration.
Like in the first trial, the test was conducted at 37° C. and relative humidity >90%.
Like in the first phase, the test was conducted at 37° C. and relative humidity >90%.

For data set [2] the following is noted: rectal treatment; cited from earlier work.

For `CCC(=O)OCC(=O)[C@@]1(OC(=O)CC)[C@@H](C)C[C@H]2[C@@H]3CCC4=CC(=O)C=C[C@]4(C)[C@@]3(Cl)[C@@H](O)C[C@@]21C` [BDP A, beclomethasone dipropionate], the “recovery Total” value in data set [1] was 149.81. The recovery % in data set [1] (24 h, 5 mg/mL) was 200%.

Regarding `CCC(=O)OCC(=O)[C@@]1(OC(=O)CC)[C@@H](C)C[C@H]2[C@@H]3CCC4=CC(=O)C=C[C@]4(C)[C@@]3(Cl)[C@@H](O)C[C@@]21C` [BDP B, beclomethasone dipropionate], in data set [1], the “recovery Total” value stood at 133.53. The same molecule registered a recovery % in data set [1] (24 h, 5 mg/mL) of 89%.

For the molecule `CCC(=O)OCC(=O)[C@@]1(OC(=O)CC)[C@@H](C)C[C@H]2[C@@H]3CCC4=CC(=O)C=C[C@]4(C)[C@@]3(Cl)[C@@H](O)C[C@@]21C` [BDP C, beclomethasone dipropionate], the “recovery Total” value in data set [1] is 112.53. Also, the recovery % in data set [1] (24 h, 5 mg/mL) came to 75%. Turning to `CCC(=O)OCC(=O)[C@@]1(OC(=O)CC)[C@@H](C)C[C@H]2[C@@H]3CCC4=CC(=O)C=C[C@]4(C)[C@@]3(Cl)[C@@H](O)C[C@@]21C` [BDP D, beclomethasone dipropionate], the “recovery Total” value in data set [1] worked out at 1339.30. The molecule further showed a recovery % in data set [1] (48 h, 200 mg/mL) of 22%.

As for `CCC(=O)OCC(=O)[C@@]1(OC(=O)CC)[C@@H](C)C[C@H]2[C@@H]3CCC4=CC(=O)C=C[C@]4(C)[C@@]3(Cl)[C@@H](O)C[C@@]21C` [BDP, beclomethasone dipropionate], the adverse effects result in data set [2] was “almost without the adverse effects typical of steroids”.
